Reference: patent publication US6194143A, “Substrates for human cytomegalovirus protease” (Boehringer Ingelheim (Canada) Ltd., priority 1998, dated 2001)
Square brackets hold non-standard residues; d marks the D form. Peptide text beside a SMILES is read from it. * marks the point of attachment. Tyr(3-NO2) = N[C@@H](Cc1ccc(O)c([N+](=O)[O-])c1)C(=O)O; AMC = Cc1cc(=O)oc2cc(N*)ccc12; Tle = CC(C)(C)[C@H](N)C(=O)O; 2Abz = Nc1ccccc1C(=O)O

Experiments:
[1] = system: HCMV protease; settings: prior literature reports; cited from earlier work
[2] = Stability of 10 mM DMSO stock solutions at 4° C.; assay type: physicochemical; settings: 10 mM in DMSO, stored at 4° C.
Experimental: (§1) Stock solutions (10 mM) in DMSO of the compounds prepared in examples 2, 3, 4, 5 and 6 were stored at 4° C. […] Aliquoted samples of HCMV protease 50 μM (1.4 mg/ml) were kept at -80° C. in storing buffer without detectable loss of activity over an extended period of more than a year. The calculated molecular mass of wild-type HCMV protease was 28042 Da. The concentration of enzyme on which the calculations of the turnover number, kcat, and the specificity constant, kcat /Km, were derived was expressed in terms of total monomer concentration.

[3] = Solubility of substrate; assay type: physicochemical
[4] = target: T1, HCMV protease (Human cytomegalovirus, UniProt P16753); assay type: biochemical; settings: for Km / kcat / kcat/KM (specificity constant): 200-500 nM HCMV protease, determined by HPLC
T1 construct: UL80 gene from HCMV strain AD169, aa 1-256; made in house
T1 sequence (P16753 1-256): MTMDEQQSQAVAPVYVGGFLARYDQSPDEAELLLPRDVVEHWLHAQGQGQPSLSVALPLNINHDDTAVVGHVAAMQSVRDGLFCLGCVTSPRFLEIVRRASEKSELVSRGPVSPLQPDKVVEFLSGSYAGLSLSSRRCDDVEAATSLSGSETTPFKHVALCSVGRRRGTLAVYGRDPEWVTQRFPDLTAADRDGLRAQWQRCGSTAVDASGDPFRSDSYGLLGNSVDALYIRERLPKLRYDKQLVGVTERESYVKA
Experimental: (§2) Preparation of recombinant wild-type HCMV protease PCR amplified HCMV protease gene from genomic DNA (UL80 gene from HCMV strain AD169, aa 1-256) was cloned in the NdeI/BamHl restriction sites of the plasmid vector pET-17b and expressed in Escherichia Coli strain BL21(DE3)pLYSs. Following expression by induction with IPTG, cells were harvested and resuspended in lysis buffer (50 mM Tris/HCl pH 8.0, 1 mM EDTA, 1 mM DTT, 25 mM NaCl, and 1 mM PMSF) and sonicated for complete lysis and DNA breakage. Protease inclusion bodies were harvested by centrifugation. The harvested material was washed twice in lysis buffer containing 0.1% nonaethylene glycol octylphenyl ether (NP-40, Sigma Chemical Co.). Solubilization and denaturation of the harvested material were performed by resuspending the inclusion bodies in 100 mM Tris/HCl pH 8.0, 1 mM EDTA, 100 mM DTT, 50 mM NaCl, and 7 M urea and incubating at 37° C. for 2 h. After centrifugation to eliminate insoluble matter, the supernatant was extensively dialyzed in 50 mM MES pH 5.0, 0.1 mM EDTA, 10 mM DTT, and 7 M urea for cation exchange chromatography on Resource S column. The resulting pool of protease-containing fractions was then dialyzed in 25 mM Tris/HCl pH 7.8, 1 mM EDTA, and 1 M urea and diluted to ≈100 μg/ml to which 0.2 mM oxidized glutathione and 2 mM reduced glutathione were added. Incubation was performed overnight at 4° C. with gentle shaking and renaturation was then completed by extensive dialysis in 25 mM Tris/HCl pH 7.8, 1 mM EDTA, 1 mM DTT, and 100 mM NaCl followed by dialysis in storing buffer (20 mM acetate pH 5.0, 0.1 mM EDTA, 1 mM DTT, and 50 mM NaCl) before concentration of the sample to give the desired protease.
as §1
HPLC analysis. Specificity constant, kcat /Km, and individual parameters kcat & Km for the peptide substrate of Example 2 were determined by HPLC monitoring of the initial rate of appearance of the N-terminus cleavage product at various substrate concentrations. Incubation buffer contained 50 mM Tris/HCl pH 8, 0.5 M Na2 SO4, 50 mM NaCl, 0.1 mM EDTA, 1 mM TCEP, 3% DMSO v/v, & 0.05% w/v casein to which 20-500 μM substrate was added. Following equilibration at 30° C., the reactions were initiated by addition of 50 nM HCMV protease (total monomer concentration) from a 2.5 μM stock solution in assay buffer and quenched at regular intervals with 1% TFA up to ≈25% total hydrolysis. The aliquots were injected on a C8 reversed-phase column using a linear gradient of acetonitrile in aqueous 3mM SDS containing 0.05% H3 PO4 (22 to 28% acetonitrile at 2 min, to 30% at 4 min, to 50% at 6 min at a constant flow rate of 4 ml/min). A calibration curve of the N-terminus product was used to estimate the extent of the conversion (retention time=2.7 min). The data was fitted to the non-linear regression analysis of the Michaelis-Menten equation by the kinetic software GRAFIT (Grafit, Erithacus Software Ltd, 1989-1992, Version 3.0, Leatherbarrow, R. J., London, U.K.). A similar protocol was adopted for the peptide substrates of Examples 5 and 6. In this case the enzyme concentration used was respectively 500 nM and 200 nM. The HPLC gradient was 25 to 38% acetonitrile at 11 min, to 100% at 13 min at a constant flow rate of 4 ml/min.

[5] = target: T1, HCMV protease; test: Inhibitory activity on HCMV protease (IC50); assay type: biochemical
Experimental: The substrate of formula 1 was used to implement a 100 nM HCMV protease assay for routine screening of inhibitors. However rapid progress in the structure-activity relationship (SAR) studies eventually required a reduction of the enzyme concentration in order to differentiate between potent compounds. Indeed an IC50 value cannot be lower than half the enzyme concentration in the assay. Reducing the enzyme therefore permits accurate determination of the potency of active inhibitors.
The large reduction in Km was responsible for this substantial increase in activity and reflected the anticipated improvement in binding. The inhibitory activity of the N-terminal product ABz-Tbg-Tbg-Asn(Me)2 -Ala-OH was determined to establish if it could interfere with the course of the reaction.

[6] = target: T1, HCMV protease; test: Mode of inhibition by Dixon-plot analysis with substrate 2; assay type: biochemical; settings: Dixon-plot of initial rate of hydrolysis at different substrate 2 and inhibitor concentrations; substrate 0.4 to 2.5 Km
Source text: FIG. 1 illustrates the inhibitory effect of a peptide inhibitor on HCMV protease at various concentrations of an improved substrate of this application.
The convenient use of fluorescence in this experiment was possible since a range of substrate concentrations from 0.4 to 2.5 Km was permitted. Substrate 1 could not be used in this application since its Km value is well above the inner filter limit.

[7] = target: T1, HCMV protease; test: HCMV protease fluorometric assay of substrate cleavage; assay type: biochemical; settings: for kcat/Km, fold greater than for the substrate of formula 1 (unoptimized substrate): compared with substrate of formula 1
Experimental: as §2
Stock solutions (10 mM) in DMSO of the compounds prepared in examples 2, 3, 4, 5 and 6 were stored at 4° C. […] Aliquoted samples of HCMV protease 50 μM (1.4 mg/ml) were kept at -80° C. in storing buffer without detectable loss of activity over an extended period of more than a year. The calculated molecular mass of wild-type HCMV protease was 28042 Da. […]

## DABCYL-RGVVNA-SSRLA-EDANS
[1]
  kcat/KM: 796 M⁻¹ s⁻¹

## Y(3-NO2)GVVNA-SSRLA-ABz-K
[1]
  kcat/KM: 3167 M⁻¹ s⁻¹

## CC(C)C[C@H](NC(=O)[C@H](CCCNC(=N)N)NC(=O)[C@H](CO)NC(=O)[C@H](CO)NC(=O)[C@H](C)NC(=O)[C@H](CC(N)=O)NC(=O)[C@@H](NC(=O)[C@@H](NC(=O)c1ccccc1N)C(C)C)C(C)C)C(=O)N[C@@H](Cc1ccc(O)c([N+](=O)[O-])c1)C(=O)N[C@@H](CCCNC(=N)N)C(=O)O [Substrate 1] (H-[2Abz]VVNASSRL[Tyr(3-NO2)]R-OH)
[2]
  stability of compound in stock solution: stable for several weeks
[3]
  solubility: limited solubility

## d-Biotin-Arg-Gly-Val-Val-Asn-Ala-Ser-Ser-Arg-Leu-Ala-Tyr-NH2 [Substrate 4]
[4]
  Km: 422 µM
  kcat: 0.086 s⁻¹
  kcat/KM (specificity constant): 205 M⁻¹ s⁻¹

## C[C@H](NC(=O)[C@H](CC(=O)N(C)C)NC(=O)[C@@H](NC(=O)[C@@H](NC(=O)c1ccccc1N)C(C)(C)C)C(C)(C)C)C(=O)O [ABz-Tbg-Tbg-Asn(Me)2 -Ala-OH] (H-[2Abz][Tle][Tle]D(NMe2)A-OH)
[5]
  IC50: > 75 µM

## CC(NC(=O)[C@H](CC(=O)N(C)C)NC(=O)[C@@H](NC(=O)CC(C)(C)C)C(C)(C)C)C(=O)C(=O)NCc1ccccc1 (stereo partly drawn) [DATbg-Tbg-Asn(Me2)-Ala-CONHCH2Ph]
[6]
  mode of inhibition: competitive

## DABCYL-RRVVNA-S-Aba-RLD(EDANS)-NH2
[1]
  Km: 3 µM

## CC(C)C[C@H](NC(=O)[C@H](CCCNC(=N)N)NC(=O)[C@H](CO)NC(=O)[C@H](CO)NC(=O)[C@H](C)NC(=O)[C@H](CC(=O)N(C)C)NC(=O)[C@@H](NC(=O)[C@@H](NC(=O)c1ccccc1N)C(C)(C)C)C(C)(C)C)C(=O)N[C@@H](Cc1ccc(O)c([N+](=O)[O-])c1)C(=O)N[C@@H](CCCNC(=N)N)C(=O)O [Substrate 2, ABz-Tbg-Tbg-Asn(Me)2 -Ala-Ser-Ser-Arg-Leu-Tyr(3-NO2)-Arg-OH] (H-[2Abz][Tle][Tle]D(NMe2)ASSRL[Tyr(3-NO2)]R-OH)
[2]
  stability of compound in stock solution: stable for several weeks
[7]
  kcat/Km, fold greater than for the substrate of formula 1 (unoptimized substrate): 60 fold

## d-Biotin-Arg-Gly-Tbg-Tbg-Asn(Me)2 -Ala-Ser-Ser-Arg-Leu-Ala-Tyr(^125,)-NH2 [Substrate 13a]
[4]
  Km: 19 µM
  kcat: 0.045 s⁻¹
  kcat/KM (specificity constant): 2370 M⁻¹ s⁻¹
[4]; as measured by HPLC
  kcat/KM, fold greater compared to the substrate of formula 12a: 12 fold

## ABz-GVVNA-SSRLAY(3-NO2)G
[1]
  Km: 134 µM
  kcat: 0.37 s⁻¹
  kcat/KM: 2750 M⁻¹ s⁻¹

## d-Biotin-Arg-Gly-Tbg-Tbg-Asn (Me) 2 -Ala-Ser-Ser-Arg-Leu-Ala-Tyr-NH2 [Substrate 5]
[4]
  Km: 19 µM
  kcat: 0.045 s⁻¹
  kcat/KM (specificity constant): 2370 M⁻¹ s⁻¹

## CC(=O)N[C@H](C(=O)N[C@H](C(=O)N[C@@H](CC(=O)N(C)C)C(=O)N[C@@H](C)C(=O)Nc1ccc2c(C)cc(=O)oc2c1)C(C)(C)C)C(C)(C)C [Substrate 3, N-Acetyl-Tbg-Tbg-Asn(Me)2 -Ala-AMC] (Ac-[Tle][Tle]D(NMe2)A-{AMC})
[2]
  stability of compound in stock solution: stable for several weeks
[7]
  kcat/Km, fold greater than for the substrate of formula 1 (unoptimized substrate): 10 fold
[7]; compared with substrate of formula 2
  kcat/Km, fold smaller than the substrate of formula 2: 6 fold
